What was measured:
[1] = system: chronic kidney injury models by the unilateral ureteral obstruction method; test: Mouse chronic kidney injury model (unilateral ureteral obstruction); type: in vivo, C57BL/6 mice; conditions: for BUN (urea level in serum) / Scr (creatinine level in serum): 14 days; for BUN (urea level in serum): in mmol/L (unit assumed); for Scr (creatinine level in serum): in µmol/L (unit assumed); for Col1a1 mRNA expression / Havcr1 mRNA expression / Il1 mRNA expression / Il6 mRNA expression / Ngal mRNA expression / Tgfb1 mRNA expression / Tnf mRNA expression / α-Sma mRNA expression: kidney
From the text: Chronic kidney injury: The mice were randomly divided into 7 groups, one of which was randomly selected as the normal group, and the other 6 groups were the model group, the parent drug 1 (0.4 and 4 μmol/kg), the hydrochloride 22 (4 μmol/kg), and the fumarate 23 (0.4 and 4 μmol/kg) groups, respectively, with 6 mice in each group. In addition to mice in the normal group that had sham operations (i.e., there was no other operations, but only the left ureter was exposed), the other mice were established chronic kidney injury models by the unilateral ureteral obstruction method. Specifically, the abdominal skin was sterilized with iodophor and alcohol in sequence, and the abdominal skin was cut and separated layer by layer. After fully exposing and separating the left ureter, double obstruction was performed at the proximal bladder end of the ureter with a digestible suture line, followed by suture. On the first day of model establishment, the parent drug 1 (0.4 and 4 μmol/kg), the hydrochloride 22 (4 μmol/kg) and the fumarate 23 (0.4 and 4 μmol/kg) were administered intragastrically for 14 consecutive days. The mice in the normal group and model group were administered intragastrically the same volume of the solvent 0.5% CMC-Na.
1 h after the last administration, blood was collected from the venous plexus of fundus oculi, stood at room temperature for 2 h, and centrifuged at 3000 rpm for 20 min. The serum was aspirated, aliquoted, and frozen at −70° C. for subsequent use. After blood collection, the mice were sacrificed by cervical dislocation, and the abdominal cavity was opened. The kidneys were taken out, rinsed twice with pre-cooled PBS after the perirenal fats and capsules were peeled off, and then fixed with 4% paraformaldehyde for 24-48 h, embedded in paraffin and stained with HE. The remaining tissues were frozen at −70° C. for subsequent use.
μL serum was taken from each sample for the detection of creatinine and urea levels. Samples were added in accordance with the instructions of the kit strictly. After incubation at 37° C., the absorbance value was measured in a microplate reader, and the content levels of detection indicators in each group were calculated according to the standard curve.
The extraction of total RNA from animal tissues, cDNA synthesis and PCR amplification are as in above examples.

[2] = system: mouse sepsis model; test: Mouse sepsis model (LPS), Q-PCR of inflammatory factors; type: in vivo, C57BL/6 mice; design: key: relative mRNA by 2^−ΔΔCt, normalized to Gapdh
From the text: The mice were randomly divided into 8 groups, one of which was randomly selected as the normal group, and the other 7 groups were the model group, the parent drug 1 (0.4 and 4 μmol/kg), the hydrochloride 22 (4 μmol/kg), the fumarate 23 (0.4 and 4 μmol/kg) and dexamethasone (Dex, 12 μmol/kg) groups, respectively, with 6 mice in each group. 5 days before model establishment, the parent drug 1 (0.4 and 4 μmol/kg), the hydrochloride 22 (4 μmol/kg), the fumarate 23 (0.4 and 4 μmol/kg) and Dex (12 μmol/kg) were administered intragastrically. The mice in the normal group and model group were administered intragastrically the same volume of the solvent 0.5% CMC-Na. LPS (10 mg/kg) was injected intraperitoneally 1 hour after administration on the last day to establish a mouse sepsis model.
At 6 h after intraperitoneal injection of LPS, the mice were sacrificed by cervical dislocation, and the abdominal cavity was opened. The lungs, livers and kidneys were taken out, and rinsed twice with pre-cooled PBS. The lung tissues, liver left lobe tissues and kidney tissues of the mice were cut, and fixed with 4% paraformaldehyde for 24-48 h. The remaining tissues were frozen at −70° Cfor subsequent use.
20 mg of kidney, lung and liver tissues were accurately weighed, rinsed with pre-cooled PBS solution, cut into small pieces by ophthalmic surgical scissors, and put into a glass homogenizer, into which was added 1 mL Trizol reagent for grinding to prepare tissue homogenate. Subsequently, the homogenate was transferred into a 1.5 mL EP tube without RNase and lysed on ice for 10 min. 200 μL chloroform was added, and the mixture was shaken violently, stood on ice for 3-5 min, and centrifuged at 12000 rpm and 4° C. for 15 min. The supernatant was aspirated carefully into a new 1.5 mL EP tube without RNase, into which was added the same volume of pre-cooled isopropanol, stood on an ice bath for 30 min, centrifuged at 12000 rpm and 4° C. for 10 min, and the supernatant was discarded. 75% ethanol-DEPC solution was added to wash the precipitate, and the total RNA was obtained by inversion and air drying on flat paper. Subsequently, 10 μL of DEPC treated water was added for dissolution. 1 μL of the total RNA solution was taken, and diluted to 100 times, the OD values of which at 260 nm and 280 nm were measured with a full wavelength microplate reader. If the ratio of OD260/OD280 is between 1.8 and 2.0, it is said that the extracted RNA has a high purity, i.e., it can be used in subsequent experiments.
Subsequent experiments were carried out with 20 μL of a reverse transcription reaction system according to the method described in the kit instructions:
Subsequent experiments were carried out with 20 μL of a reaction system according to the method described in the kit instructions:
The above reagents were added into a micro-reaction tube, sealed with a sealing membrane, and placed in a Q-PCR instrument. The parameters were set according to the following reaction conditions to carry out the amplification experiment. The reaction conditions were as follows:
The threshold cycle (Ct) value of each group was recorded. Calculating and analyzing were carried out by the 2^−ΔΔCt method (the expression level of the control gene Gapdh was set to 1 to correct the expression level of the target gene).

[3] = Table 12, title 'in lung' (text b281: liver), 0.4 μmol/kg i.g.
[4] = Table 12, title 'in lung' (text b281: liver), 4 μmol/kg i.g.

Row | SMILES | BUN (urea level in serum) ([1]; 0.4 μmol/kg i.g.) | BUN (urea level in serum) ([1]; 4 μmol/kg i.g.) | Scr (creatinine level in serum) ([1]; 4 μmol/kg i.g.) | Col1a1 mRNA expression ([1]; 4 μmol/kg) | Havcr1 mRNA expression ([1]; 4 μmol/kg) | Il1 mRNA expression ([1]; 4 μmol/kg) | Il6 mRNA expression ([1]; 4 μmol/kg) | Ngal mRNA expression ([1]; 4 μmol/kg) | Tgfb1 mRNA expression ([1]; 4 μmol/kg) | Tnf mRNA expression ([1]; 4 μmol/kg) | α-Sma mRNA expression ([1]; 4 μmol/kg) | Il1 mRNA expression [2, 4] | Il6 mRNA expression [2, 4] | Tnf mRNA expression [2, 4] | Il1 mRNA expression ([2]; kidney, 4 μmol/kg i.g.) | Il6 mRNA expression ([2]; kidney, 4 μmol/kg i.g.) | Tnf mRNA expression ([2]; kidney, 4 μmol/kg i.g.) | Il1 mRNA expression ([2]; lung, 4 μmol/kg i.g.) | Il6 mRNA expression ([2]; lung, 4 μmol/kg i.g.) | Tnf mRNA expression ([2]; lung, 4 μmol/kg i.g.) | other results
1 | C=C1C(=O)O[C@@H]2[C@@H]3[C@]4(CC[C@@]3(C)O)C[C@]4(C)CC[C@@H]12 [Compound 1] | 18.41 | 11.01 | 104.65 | 9.45 | 8.54 | 3.99 | 6.50 | 21.66 | 1.55 | 6.59 | 1.54 | 4.82 ± 0.58 | 5.20 ± 0.87 | 7.09 ± 0.99 | 3.05 ± 0.58 | 3.11 ± 0.29 | 6.59 ± 0.18 | 7.89 ± 1.44 | 11.67 ± 1.84 | 7.99 ± 1.36 | Scr (creatinine level in serum) ([1]; 0.4 μmol/kg i.g.): 176.35; Col1a1 mRNA expression ([1]; 0.4 μmol/kg): 16.09; Havcr1 mRNA expression ([1]; 0.4 μmol/kg): 12.56; Il1 mRNA expression ([1]; 0.4 μmol/kg): 6.05; Il6 mRNA expression ([1]; 0.4 μmol/kg): 16.52; Ngal mRNA expression ([1]; 0.4 μmol/kg): 37.82; Tgfb1 mRNA expression ([1]; 0.4 μmol/kg): 2.04; Tnf mRNA expression ([1]; 0.4 μmol/kg): 6.41; α-Sma mRNA expression ([1]; 0.4 μmol/kg): 2.32; Il1 mRNA expression [2, 3]: 11.24 ± 2.98; Il6 mRNA expression [2, 3]: 8.86 ± 3.11; Tnf mRNA expression [2, 3]: 8.75 ± 2.25; Il1 mRNA expression ([2]; kidney, 0.4 μmol/kg i.g.): 7.01 ± 0.33; Il6 mRNA expression ([2]; kidney, 0.4 μmol/kg i.g.): 7.55 ± 2.08; Tnf mRNA expression ([2]; kidney, 0.4 μmol/kg i.g.): 7.17 ± 1.22; Il1 mRNA expression ([2]; lung, 0.4 μmol/kg i.g.): 15.29 ± 0.88; Il6 mRNA expression ([2]; lung, 0.4 μmol/kg i.g.): 19.17 ± 0.51; Tnf mRNA expression ([2]; lung, 0.4 μmol/kg i.g.): 8.58 ± 0.85
2 | CN(C)C[C@@H]1C(=O)O[C@H]2[C@H]1CC[C@@]1(C)C[C@]13CC[C@@](C)(O)[C@H]23 [Compound 22] | – | 9.39 | 64.50 | 7.30 | 6.29 | 2.77 | 3.69 | 16.14 | 1.44 | 5.09 | 1.26 | 3.07 ± 0.29 | 3.93 ± 0.90 | 5.71 ± 0.61 | 2.76 ± 0.59 | 2.43 ± 0.64 | 6.20 ± 0.60 | 5.22 ± 0.90 | 7.16 ± 0.71 | 6.52 ± 0.29 | –
3 | CN(C)C[C@@H]1C(=O)O[C@H]2[C@H]1CC[C@@]1(C)C[C@]13CC[C@@](C)(O)[C@H]23 [Compound 23] | 17.63 | 9.45 | 79.87 | 8.27 | 7.25 | 3.55 | 5.61 | 19.42 | 1.53 | 7.53 | 1.39 | 4.36 ± 0.94 | 4.97 ± 0.77 | 7.10 ± 1.09 | 2.82 ± 0.33 | 2.70 ± 0.52 | 6.04 ± 1.62 | 6.79 ± 0.72 | 9.10 ± 1.20 | 8.67 ± 1.51 | Scr (creatinine level in serum) ([1]; 0.4 μmol/kg i.g.): 157.79; Col1a1 mRNA expression ([1]; 0.4 μmol/kg): 11.79; Havcr1 mRNA expression ([1]; 0.4 μmol/kg): 11.90; Il1 mRNA expression ([1]; 0.4 μmol/kg): 5.32; Il6 mRNA expression ([1]; 0.4 μmol/kg): 14.31; Ngal mRNA expression ([1]; 0.4 μmol/kg): 35.77; Tgfb1 mRNA expression ([1]; 0.4 μmol/kg): 1.76; Tnf mRNA expression ([1]; 0.4 μmol/kg): 7.10; α-Sma mRNA expression ([1]; 0.4 μmol/kg): 2.02; Il1 mRNA expression [2, 3]: 10.46 ± 1.55; Il6 mRNA expression [2, 3]: 9.13 ± 0.80; Tnf mRNA expression [2, 3]: 7.63 ± 1.97; Il1 mRNA expression ([2]; kidney, 0.4 μmol/kg i.g.): 6.56 ± 0.88; Il6 mRNA expression ([2]; kidney, 0.4 μmol/kg i.g.): 6.05 ± 0.19; Tnf mRNA expression ([2]; kidney, 0.4 μmol/kg i.g.): 6.70 ± 0.80; Il1 mRNA expression ([2]; lung, 0.4 μmol/kg i.g.): 13.30 ± 0.88; Il6 mRNA expression ([2]; lung, 0.4 μmol/kg i.g.): 18.40 ± 3.16; Tnf mRNA expression ([2]; lung, 0.4 μmol/kg i.g.): 8.79 ± 1.18

From patent publication US20240124409A1, “GUAIANOLIDE SESQUITERPENE LACTONE DERIVATIVES AND PHARMACEUTICAL USE THEREOF” (NANJING UNIVERSITY OF CHINESE MEDICINE, priority 2021, published 2024)
